Laboratory results: patent US12435039B2, “Activators of caspase-8/c-FLIPL dimerization and their use in cancer therapy” (priority 2018, dated 2025)

Experiments:
[1] = test system: Jurkat cells; assay: Cell viability quantification by ATP assay (CellTiter-Glo), Jurkat cells; assay type: cell-based, human
Description: (§1) Cell lines—Human cervical cancer HeLa-CD95 cells (Neumann et al., 2010) (CD95-overexpressing cells) and HeLa-CD95-FL cells (CD95/c-FLIPL-overexpressing cells) were maintained in DMEM/Ham's (Merck Millipore, Germany) supplemented with 10% heat-inactivated fetal calf serum, 1% Penicillin-Streptomycin and 0.0001% Puromycin in 5% CO2. Human acute myeloid leukemia MV-4-11 cells and T lymphoma Jurkat cells were maintained in RPMI 1640 (Thermo Fisher Scientific Inc., USA) supplemented with 10% heat-inactivated fetal calf serum and 1% Penicillin-Streptomycin in 5% CO2.
(§2) Cell viability quantification by ATP assay—50 μL of the CellTiter-Glo® solution was added to each well and measurements were performed according to manufacturer's instructions (CellTiter-Glo® Luminescent Cell Viability Assay, Promega, Germany). The luminescence intensity was analyzed by a microplate reader Infinite M200pro (Tecan, Switzerland). The viability of untreated cells was taken as one relative unit (RU). Every condition was performed in duplicate.

[2] = test system: caspase-3/7 in Jurkat cells; assay: Caspase-3/7 activity assay (Caspase-Glo 3/7), Jurkat cells; assay type: cell-based, human
Experimental: Caspase-3/7 activity assay—Caspase activity was measured by adding 50 μL of the Caspase-Glo®3/7 solution to each well. The luminescence intensity was analyzed by a microplate reader Infinite M200pro (Tecan, Switzerland) according to manufacturer's instructions (Caspase-Glo® 3/7 Assay, Promega, Germany). The caspase activity of non-treated cells was taken as one relative unit (RU). Every condition was performed in duplicate.

[3] = test system: HeLa-CD95-FL cells (CD95/c-FLIPL-overexpressing); assay: Cell viability quantification by ATP assay (CellTiter-Glo), HeLa-CD95-FL cells; assay type: cell-based, human
Description: as §1, §2

[4] = test system: caspase activity in HeLa-CD95 cells; assay: Caspase activity in HeLa-CD95 cells (FLIPinB); assay type: cell-based, human; conditions: FLIPinB with CD95L/TRAIL
[5] = test system: HeLa-CD95 cells; assay: Cell viability quantification by ATP assay (CellTiter-Glo), HeLa-CD95 cells; assay type: cell-based, human
Description: as §1, §2

[6] = test system: c-FLIPL; assay: Western Blot time-dependent analysis of c-FLIPL levels; assay type: cell-based, human; conditions: HeLa-CD95 cells; 20 μM FLIPinBγ up to 16 hours; first hours after administration
Experimental: (§3) Analysis of total cell lysates by Western Blot analysis—The Western Blot analysis of total cellular lysates was performed in accordance to the inventors' previous reports (Schmidt et al., 2015).

[7] = test system: HeLa-CD95 cells; assay: Cell death detection using IncuCyte live cell imaging (Cytotox Red); assay type: cell-based; conditions: 40 μM FLIPinBγ two hours
Experimental: Cell death detection using IncuCyte™ live cell imaging—HeLa-CD95 cells in a 96 well plate (5×10^3 cells/well) were pre-incubated with FLIPinBγ for 2 hours. […] To monitor cell death, cells were treated with IncuCyte™ Cytotox Red Reagent (1:4000) and Caspase-3/7 Green Apoptosis Assay Reagent (1:5000). The cells were imaged every hour by IncuCyte® ZOOM (Essen BioScience, Michigan) with a […] objective for a period of 6 hours. Every condition was performed in triplicate. Data were analyzed by the IncuCyte® ZOOM Software (2016A).

[8] = test system: procaspase-8, RIPK1 and PARP cleavage in HeLa-CD95 cells; assay: Western Blot analysis of total cellular lysates, CD95L-induced cleavage; assay type: cell-based, human; conditions: 20 μM FLIPinBγ two hours, CD95L 60 ng/mL three hours
Experimental: as §3

[9] = test system: caspase-8 at the DISC; assay: Caspase-8 activity assay on CD95 DISC-IPs (Caspase-Glo 8); assay type: biochemical, human; conditions: CD95 DISC-IPs from HeLa-CD95 cells; 20 μM FLIPinBγ two hours, CD95L 60 ng/mL three hours
Experimental: CD95 DISC-IP—The CD95 DISC-IP (Immunoprecipitation) from 5×10^6 HeLa-CD95 cells were done as described before (Pietkiewicz et al., 2015). In addition, DISC-IPs were washed four times with PBS, which was followed by Western Blot analysis or caspase-8 activity assays.
Caspase-8 activity assay—Each of protein A beads samples with CD95 DISC-IPs were resuspended in 95 μL of CHAPS-Buffer (50 mM HEPES pH=7.2; 50 mM NaCl; 10 mM EDTA; 5% Glycerin; 10 mM DTT, 0.1% CHAPS) and transferred into a 96-well plate. Caspase-8 activity was measured according to manufacturer's instructions (Caspase-Glo® 8 Assay, Promega, Germany). Every condition was performed in duplicate. The luminescence intensity was analyzed by a microplate reader Infinite M200pro (Tecan, Switzerland).

[10] = test system: MV-4-11 cells; assay: Cell viability quantification by ATP assay (CellTiter-Glo), MV-4-11 cells; assay type: cell-based, human; conditions: FLIPinBγ two hours, then CD95L 1000 ng/mL for 6 hours
Description: as §1, §2

[11] = test system: caspase-3/7 in HeLa-CD95 cells; assay: Caspase-3/7 activity by IncuCyte live cell imaging (Caspase-3/7 Green); assay type: cell-based, human

## O=C(NCCOC(=O)c1cccc(S(=O)(=O)NCc2ccccc2)c1)c1ccc(-c2ccccc2)cc1 [FLIPinB, 2-[(4-phenylbenozyl)amino]ethyl 3-(benzylsulfamoyl)benzoate]
[1]
  initial experimental screening of FLIPins: viability upon FLIPin/CD95L vs CD95L-only: showed the best properties in the initial selection
[1]; FLIPinB plus CD95L vs CD95L only
  CD95L-induced loss of cell viability: enhanced
[1]; FLIPinB plus TRAIL
  TRAIL-induced loss of cell viability: enhanced
[2]; FLIPinB with CD95L/TRAIL
  caspase activity: increased
[3]; HeLa-CD95-FL cells, FLIPinB plus CD95L
  resistance of HeLa-CD95-FL cells to CD95L: allowed to overcome the resistance
[4]
  caspase activity: increased
[5]; FLIPinB plus CD95L
  CD95L-induced loss of cell viability: enhanced
[5]; FLIPinB plus TRAIL
  TRAIL-induced loss of cell viability: enhanced

## O=C(NCCOC(=O)c1cccc(S(=O)(=O)NCc2cccnc2)c1)c1ccc(-c2ccncc2)cc1 [FLIPinBγ, 2-[[4-(4-pyridyl)benzoyl]amino]ethyl 3-(3-pyridylmethylsulfamoyl)benzoate]
[6]
  influence on c-FLIPL expression: no influence
[7]; CD95L 50 ng/mL, in the first hours
  CD95L-induced cell death (Cytotox Red live cell imaging): enhanced
[7]; TRAIL 100 ng/mL, most prominent in the first hours
  TRAIL-induced cell death (Cytotox Red live cell imaging): enhanced
[8]
  CD95L-induced RIPK1 cleavage: slight increase
  CD95L-induced cleavage of PARP: increases
  CD95L-induced cleavage of procaspase-8 to p18: increases
[1]; FLIPinBγ two hours, then CD95L 60 ng/mL for 6 hours
  CD95L-induced loss of cell viability: efficiently promoted a loss of cell viability in a dose- and time-dependent manner
[2]; 20 μM FLIPinBγ two hours, CD95L 60 ng/mL four hours
  caspase-3/7 activity, FLIPinBγ/CD95L co-treatment: increase
[2]; 20 μM FLIPinBγ two hours, TRAIL 100 ng/mL three hours
  caspase-3/7 activity, FLIPinBγ/TRAIL co-treatment: increase
[3]; HeLa-CD95-FL cells overexpressing c-FLIPL
  relative efficiency across cell lines: most efficient
[3]; HeLa-CD95-FL cells, FLIPinBγ two hours, then CD95L 238 ng/mL for 6 hours
  CD95L-induced loss of cell viability: efficiently promoted a loss of cell viability in a dose- and time-dependent manner
[9]
  caspase-8 activity at the DISC: increased
[5]; FLIPinBγ two hours, then CD95L 60 ng/mL for 22 hours
  CD95L-induced loss of cell viability: efficiently promoted a loss of cell viability in a dose- and time-dependent manner
[10]
  CD95L-induced loss of cell viability: efficiently promoted a loss of cell viability in a dose- and time-dependent manner
[11]
  caspase-3/7 activity in single cells, FLIPinBγ/TRAIL co-administration: increase
[11]; 40 μM FLIPinBγ two hours, CD95L 50 ng/mL
  caspase-3/7 activity in single cells, FLIPinBγ/CD95L co-administration: increase
